In patent publication US12454527B2, “Conjugate monomethyl auristatin E to obtain a composition for treatment of prostate cancer” (priority 2019, dated 2025):
“Also recorded” adds a separate entry of the source. Non-standard residues stand in square brackets, D forms with d. Residues, ends and D or L forms follow the SMILES beside them. *: point of attachment. Dolaproine = CO[C@@H]([C@@H]1CCCN1)[C@@H](C)C(=O)O; Dil = CC[C@H](C)[C@H](NC)[C@@H](CC(=O)O)OC; X2 = C[C@@H](N*)[C@@H](O)c1ccccc1; NMeV = CN[C@H](C(=O)O)C(C)C

Tests used:
[1] = Chronic toxicity study, intravenous once every 3 weeks, rats; assay type: in vivo
Description: (§1) Chronic toxicity study of Conjugate (1) product on Rats and rabbits.
(§2) • 1. Conjugate (I). • 2. Solubilizer Pluronic F127—in the amount, five-fold greater than the conjugate amount by weight. • 3. Diluent—Haemodes infusion solution. • 4. Dimethyl sulfoxide—in the amount of 5% of the prepared volume.
(§3) A 1 00 white ° inbred mature male rats about 2 months old with a body weight of 190-210 g and 60 sexually mature male rabbits of the Soviet Chinchilla breed about 2 months old with a body weight of […] were involved in the experiment.
(§4) The study design determined the intravenous administration of the test drugs once every 3 weeks for 3 months (a total of 4 injections) for the experiment of chronic toxicity determination. The local irritant effect of the products within intravenous administration will be studied together with the chronic toxicity study.
(§5) Each animal received the intravenous injection of the test drug or the reference drug in a volume not exceeding the acceptable volume for a single injection of 2 mL for rats and 20 mL for rabbits. The products were replaced with a Pluronic solution with DMSO in Haemodes in the control group of animals. The duration of observation for laboratory animals was 4 weeks (intermediate stage).
(§6) Apparent signs of intoxication were evaluated daily. During the study, integral indicators of animal health were recorded (see Tables 15. 16, 17).

[2] = Chronic toxicity study, intravenous once every 3 weeks, rabbits; assay type: in vivo
Description: as §1, §2, §3, §4, §5, §6

CC[C@H](C)[C@@H]([C@@H](CC(=O)N1CCC[C@H]1[C@H](OC)[C@@H](C)C(=O)N[C@H](C)[C@@H](O)c1ccccc1)OC)N(C)C(=O)[C@@H](NC(=O)[C@@H](NC)C(C)C)C(C)C [MMAE, Monomethyl auristatin E] (H-[NMeV]V[Dil][Dolaproine]-X2)
Signs of intoxication ([1]; male rats, group 5, 10 μg/kg intravenously 1 time in 3 weeks): with impaired movement; also recorded: coordination, shortness of breath,; also recorded: diarrhea; also recorded: position, tremor, the hind limb; also recorded: the hindlimb paresis; rats No. 3-5 -; also recorded: decreased motor activity, the hind; also recorded: hindlimb paresis, porphyrin secretion
Signs of intoxication: loss of body weight ([1]; male rats, group 5, 10 μg/kg, 30 Apr. 2019): 15 to 20 g
Necropsy ([1]; male rats, group 5, 10 μg/kg, animals No. 1, 5, 6 and No. 3): severely inflated; adrenal glands were 2-fold; also recorded: increase; blood in the kidneys, pink renal pelvis; also recorded: hemorrhages and ulcers; the kidneys were pale,; also recorded: liver was granular, palish
Animals survived up to the second injection ([1]; rats, chronic, reference drug): only one rat animal
Chronic toxicity (overall) ([1]; rats, i.v. once every 3 weeks, intermediate stage 4 weeks): high toxicity
Signs of intoxication: the intake of feed and water ([2]; male rabbits, group 10, 5.4 μg/kg, after administration): decreased. About a day after
Signs of intoxication ([2]; male rabbits, group 10, 5.4 μg/kg, about a day after administration and before death): superficial respiration and adynamia
Necropsy ([2]; male rabbits, group 10, 5.4 μg/kg, rabbit No. 4): grayish tint; thymus had hemorrhages;
Animals survived up to the second injection ([2]; rabbits, chronic, reference drug): no rabbits
Chronic toxicity (overall) ([2]; rabbits, i.v. once every 3 weeks, intermediate stage 4 weeks): high toxicity
